This note sets out measurements from patent publication US20030026781A1, “Compositions and methods for regulating endogenous inhibitor of ATP synthase, including treatment for diabetes” (MitoKor, priority 1999, published 2003).

“And” between values parts separate entries of the source, which are not always exact repeats. Equal values may be shown once. Ends that are not written are not given here.

For assay [1], the target named is T1, F0-F1-ATPase (Bos taurus, UniProt P00829+P19483).
T1 construct: F0-F1 ATPase complexes and F1 ATPase subcomplexes were isolated from bovine cardiac samples; from tissue; host or cells: bovine heart (from alkaline submitochondrial particles, method of Walker et al. 1995)
The assay can be described thus: ATP hydrolysis by purified F0-F1-ATPase. The format is biochemical. Particulars: bovine cardiac F0-F1-ATPase. The procedure: (§1) F0-F1 ATPase complexes and F1 ATPase subcomplexes were isolated from bovine cardiac samples essentially according to the method of Walker et al. (Methods in Enzymology 260:163-190, 1995), with the exception that, instead of preparing SMPs (submitochondrial particles) at neutral pH, ASMPs (alkaline submitochondrial particles; see Rouslin and Broge, Anal. Biochem. 222:68-75, 1994) were prepared from bovine heart by sonication in a basic solution. The ASMPs were extracted with chloroform and used to prepare F0-F1 ATPase and F1 ATPase according to the method of Walker et al. (Methods in Enzymology 260:163-190, 1995).
(§2) One assay for ATPase activity involves measuring ATP hydrolysis according to methods known in the art (Walker et al., Methods in Enzymology 260:163-190, 1995; Rouslin and Broge, Anal. Biochem. 222:68-75, 1994). Such assays can be performed using purified F0-F1 ATPase complexes or F1 ATPase subcomplexes, or using alkaline submitochondrial particles (ASMPs).
In like fashion, the two IF1 polypeptide derivatives were tested for their ability to inhibit the purified F1-ATPase and F0-F1-ATPase. The results (FIG. 5) indicate that both synthetic polypeptides inhibited the F1 ATPase. […]

In assay [2] the test system is INS-1 cells. The assay can be described thus: Mitochondrial DNA content of INS-1 cells by slot blot with COX-I probe. As to conditions: for effect on mtDNA content: INS-1 cells incubated for seven days with nucleoside analog.
Assay [3] has as its system INS-1 cells. The assay can be described thus: Glucose-responsive insulin secretion by INS-1 cells depleted of mtDNA. The format is cell-based, rat. Particulars: cells treated with ddC (10 μM) for over 20 days; any glucose level tested. As to the method: INS-1 cells, or ρ^0 INS-1 cells generated using ddC as described above, were seeded into 12-well plates containing RPMI media supplemented as described at 0.5×10^6 cells/well and cultured at 37° C., 5% CO2 for 2 days. Cells (0.7×10^6 cells/well were rinsed with glucose-free KRH buffer (134 mM NaCl, 4.7 mM KCl, 1.2 mM KH2PO4, 1.2 mM MgSO4, 1.0 mM CaCl2, 10 mM HEPES, 10 mM NaHCO3, 0.5% BSA), then incubated in the same buffer for 1 hr at 37° C. in a humidified 5% CO2/95% air atmosphere. Fresh KRH buffer containing 0.5 mM isobutylmethyl xanthine and the following secretagogues was added: 5 mM glucose, 10 mM glucose, 20 mM glucose, 5 mM KCl or 20 mM KCl. After an additional 1 hr at 37° C., 5% CO2 the culture supernatants were collected. Insulin concentrations in the supernatants were measured and normalized to cell number using an insulin-specific radioimmunoassay kit (ICN Biochemicals, Irvine, Calif.) according to the manufacturer's instructions.

Assay [4] deals with T2, purified F1-ATPase (Bos taurus, UniProt P00829+P19483).
T2 construct: F1 ATPase subcomplexes were isolated from bovine cardiac samples; from tissue; host or cells: bovine heart (alkaline submitochondrial particles, chloroform extraction, method of Walker et al. 1995)
The assay can be described thus: ATP hydrolysis by purified F1-ATPase. As to conditions: bovine cardiac F1-ATPase; read-out: IC50 for inhibition of ATP hydrolysis by purified F1-ATPase. The format is biochemical. As to the method:
as §1, §2
In an initial experiment to validate the reagents and assay system, Aurovertin-B was used as a positive control. This antibiotic binds to and inhibits the activity of bacterial and mitochondrial ATPases (van Raaij et al., Proc. Natl. Acad. Sci. US.A. 93:14 6913-14 6917, 1996). The purified F1-ATPase described in the preceding Example was treated with varying concentrations of Aurovertin-B, and ATP hydrolyis was measured.

Take FGKREKAEEDRYFREKTREQLAALK [IF1(22-46)]: the “IC50 for inhibition of purified F0-F1-ATPase” value in assay [1] is “no effect”.

Turning to `Cc1cn([C@H]2C=C[C@@H](CO)O2)c(=O)[nH]c1=O` [d4T], the “effect on mtDNA content” value in assay [2] was “decreased mtDNA content in a dose-dependent fashion”.

In the case of `O=c1[nH]cnc2c1ncn2[C@H]1CC[C@@H](CO)O1` [ddI, 2′3′-dideoxyinosine], in assay [2], the “effect on mtDNA content” value was “decreased mtDNA content in a dose-dependent fashion”.

Turning to LAALKKHHEDEIDHHSK [IF1(42-58)], the IC50 in assay [1] (read-out: IC50 for inhibition of purified F0-F1-ATPase) is ~180 nM and 180 nM.

Consider `Nc1ccn([C@H]2CC[C@@H](CO)O2)c(=O)n1` [ddC, 2′3′-dideoxycytidine], for which the “glucose stimulated insulin secretion” value in assay [3] is “not observed”. For the same compound, the “effect on mtDNA content” value in assay [2] is on record as “decreased mtDNA content in a dose-dependent fashion”. For the same compound, in assay [2] (INS-1 cells incubated with 25 ∥M ddC, after 21 days), the mtDNA detection result is “undetectable”. For the same compound, the IC50 in assay [2] (read-out: IC50 for decrease of mtDNA content, INS-1 cells, seven days) was approximately 50000 nM.

`CC[C@H]1O[C@]2(C)[C@H](OC(C)=O)[C@@]1(C)O[C@@H](/C=C/C=C/C=C/c1oc(=O)cc(OC)c1C)[C@@H]2O` [Aurovertin-B]: the IC50 in assay [4] came out at 850 nM.

As a reminder, the IC50 is the concentration that gives 50% inhibition.
